Patent US20260022142A1, “MACROCYCLIC IMMUNOMODULATORS” (Bristol-Myers Squibb Company, priority 2022, published 2026)
Bridge positions count the residues as written; N and C are the ends. Square brackets hold non-standard residues; d marks the D form. Peptide text beside a SMILES is read from it. * marks the point of attachment. ξ: configuration not given here. Bip = N[C@@H](Cc1ccc(-c2ccccc2)cc1)C(=O)O; Phe(3-Me) = Cc1cccc(C[C@H](N)C(=O)O)c1; Pyrazinecarbonyl = O=C(c1cnccn1)*; hArg = N=C(N)NCCCC[C@H](N)C(=O)O; 4Pal = N[C@@H](Cc1ccncc1)C(=O)O; Cha = N[C@@H](CC1CCCCC1)C(=O)O; Cit = NC(=O)NCCC[C@H](N)C(=O)O; aThr = C[C@H](O)[C@H](N)C(=O)O; Thr(3ξ) = CC(O)[C@H](N)C(=O)O; Dap(Me) = CNC[C@H](N)C(=O)O; 12Ado = NCCCCCCCCCCCC(=O)O; hSer = N[C@@H](CCO)C(=O)O; Carboxymethyl = O=C(O)C*; Orn = NCCC[C@H](N)C(=O)O; Aun = NCCCCCCCCCCC(=O)O; Dab = NCC[C@H](N)C(=O)O; Dap = NC[C@H](N)C(=O)O; X11 = CC(C)(F)C(=O)*

Molecular target: T1, PD-1/PD-L1 interaction (PE-labeled human PD-L1-Ig binding to Jurkat cell line over-expressing human PD-1) (Homo sapiens, UniProt Q15116)
T1 construct: expressed in transfected cells; host or cells: Jurkat
T1 sequence (Q15116 25-288): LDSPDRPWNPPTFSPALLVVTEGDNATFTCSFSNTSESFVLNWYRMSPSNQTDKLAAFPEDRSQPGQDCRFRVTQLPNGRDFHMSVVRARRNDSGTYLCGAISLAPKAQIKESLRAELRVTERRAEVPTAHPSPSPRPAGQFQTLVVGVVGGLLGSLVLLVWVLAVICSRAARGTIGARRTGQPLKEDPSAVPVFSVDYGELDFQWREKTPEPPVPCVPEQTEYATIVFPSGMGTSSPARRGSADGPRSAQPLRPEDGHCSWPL
Experiment: Jurkat-PD-1 Cell Binding High-Content Screening Assay (CBA)
Format: cell-based
Details: Jurkat cell line over-expressing human PD-1; PE-labeled PD-L1-Ig 20 nM final; read-out: Jurkat hPD1-PDL1 IC50
How it was run: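 Binding of fluorescent PD-L1-Ig (20 nM final) to Jurkat-PD-1 cells was measured by automated imaging after 1 h, following a 2 h compound pre-treatment at 37° C.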

| Structure (SMILES) | IC50 [nM] |
| --- | --- |
| Cc1cccc(C[C@@H]2NC(=O)[C@H](CC(=O)O)NC(=O)[C@H](Cc3ccc(OCC(=O)O)cc3)NC(=O)[C@H](CCCNC(=O)c3cnccn3)NC(=O)CSC[C@@H](C(=O)N[C@@H](CCCN)C(=O)N[C@@H](CO)C(=O)NCCCCCCCCCCCC(=O)O)NC(=O)[C@H](C(C)O)NC(=O)[C@H](CCO)NC(=O)[C@H](CC3CCCCC3)NC(=O)[C@H](CCN)NC(=O)[C@@H](CC(C)C)NC(=O)[C@H](CCCN)NC(=O)[C@H](CCCNC(N)=O)NC(=O)[C@H](Cc3ccc(-c4ccccc4)cc3)NC(=O)[C@H](C(C)C)NC2=O)c1 (stereo partly drawn) [Compound 3583] ({CH2CO}-[Orn](Pyrazinecarbonyl)Y(Carboxymethyl)D[Phe(3-Me)]V[Bip][Cit][Orn][dL][Dab][Cha][hSer][Thr(3ξ)]C[Orn]S[12Ado]-OH; thioether N-14) | 20.5 |
| Cc1cccc(C[C@@H]2NC(=O)[C@H](CC(=O)O)NC(=O)[C@H](Cc3ccc(OCC(=O)O)cc3)NC(=O)[C@H](Cc3ccncc3)NC(=O)CSC[C@@H](C(=O)N[C@@H](CCCN)C(=O)N[C@@H](CO)C(=O)NCCCCCCCCCCCC(=O)O)NC(=O)[C@H](C(C)O)NC(=O)[C@H](C(C)C)NC(=O)[C@H](CC3CCCCC3)NC(=O)[C@H](CCN)NC(=O)[C@@H](CC(C)C)NC(=O)[C@H](CCCN)NC(=O)[C@H](CCCNC(=O)C(C)(C)F)NC(=O)[C@H](Cc3ccc(-c4ccccc4)cc3)NC(=O)[C@H](Cc3ccc(O)cc3)NC2=O)c1 (stereo partly drawn) [Compound 3584] ({CH2CO}-[4Pal]Y(Carboxymethyl)D[Phe(3-Me)]Y[Bip][Orn](X11)[Orn][dL][Dab][Cha]V[Thr(3ξ)]C[Orn]S[12Ado]-OH; thioether N-14) | 38.2 |
| Cc1cccc(C[C@@H]2NC(=O)[C@H](CC(=O)O)NC(=O)[C@H](Cc3ccc(OCC(=O)O)cc3)NC(=O)[C@H](Cc3ccncc3)NC(=O)CSC[C@@H](C(=O)N[C@@H](CCCN)C(=O)N[C@@H](CO)C(=O)NCCCCCCCCCCCC(=O)O)NC(=O)[C@H](C(C)O)NC(=O)[C@H](C(C)C)NC(=O)[C@H](CC3CCCCC3)NC(=O)[C@H](CCN)NC(=O)[C@@H](CC(C)C)NC(=O)[C@H](CCCN)NC(=O)[C@H](CCCNC(N)=O)NC(=O)[C@H](Cc3ccc(-c4ccccc4)cc3)NC(=O)[C@H](C(C)C)NC2=O)c1 (stereo partly drawn) [Compound 3585] ({CH2CO}-[4Pal]Y(Carboxymethyl)D[Phe(3-Me)]V[Bip][Cit][Orn][dL][Dab][Cha]V[Thr(3ξ)]C[Orn]S[12Ado]-OH; thioether N-14) | 30.8 |
| Cc1cccc(C[C@@H]2NC(=O)[C@H](CC(=O)O)NC(=O)[C@H](Cc3ccc(OCC(=O)O)cc3)NC(=O)[C@H](CN)NC(=O)CSC[C@@H](C(=O)N[C@@H](CCCN)C(=O)N[C@@H](CO)C(=O)NCCCCCCCCCCCC(=O)O)NC(=O)[C@H](C(C)O)NC(=O)[C@H](C(C)C)NC(=O)[C@H](CC3CCCCC3)NC(=O)[C@H](CCN)NC(=O)[C@@H](CC(C)C)NC(=O)[C@H](CCCN)NC(=O)[C@H](CCCNC(N)=O)NC(=O)[C@H](Cc3ccc(-c4ccccc4)cc3)NC(=O)[C@H](Cc3ccc(O)cc3)NC2=O)c1 (stereo partly drawn) [Compound 3586] ({CH2CO}-[Dap]Y(Carboxymethyl)D[Phe(3-Me)]Y[Bip][Cit][Orn][dL][Dab][Cha]V[Thr(3ξ)]C[Orn]S[12Ado]-OH; thioether N-14) | 30.1 |
| Cc1cccc(C[C@@H]2NC(=O)[C@H](CC(=O)O)NC(=O)[C@H](Cc3ccc(OCC(=O)O)cc3)NC(=O)[C@H](CN)NC(=O)CSC[C@@H](C(=O)N[C@@H](CCCN)C(=O)N[C@@H](CO)C(=O)NCCCCCCCCCCCC(=O)O)NC(=O)[C@H](C(C)O)NC(=O)[C@H](CCO)NC(=O)[C@H](CC3CCCCC3)NC(=O)[C@H](CCN)NC(=O)[C@@H](CC(C)C)NC(=O)[C@H](CCCN)NC(=O)[C@H](CCCNC(N)=O)NC(=O)[C@H](Cc3ccc(-c4ccccc4)cc3)NC(=O)[C@H](C(C)C)NC2=O)c1 (stereo partly drawn) [Compound 3587] ({CH2CO}-[Dap]Y(Carboxymethyl)D[Phe(3-Me)]V[Bip][Cit][Orn][dL][Dab][Cha][hSer][Thr(3ξ)]C[Orn]S[12Ado]-OH; thioether N-14) | 33.5 |
| Cc1cccc(C[C@@H]2NC(=O)[C@H](CC(=O)O)NC(=O)[C@H](Cc3ccc(OCC(=O)O)cc3)NC(=O)[C@H](CN)NC(=O)CSC[C@@H](C(=O)N[C@@H](CCN)C(=O)N[C@@H](CO)C(=O)NCCCCCCCCCCCC(=O)O)NC(=O)[C@H](CCCN)NC(=O)[C@H](C(C)C)NC(=O)[C@H](CC3CCCCC3)NC(=O)[C@H](CCN)NC(=O)[C@@H](CC(C)C)NC(=O)[C@H](CCCN)NC(=O)[C@H](Cc3ccc(O)cc3)NC(=O)[C@H](Cc3ccc(-c4ccccc4)cc3)NC(=O)[C@H](C(C)C)NC2=O)c1 [Compound 3588] ({CH2CO}-[Dap]Y(Carboxymethyl)D[Phe(3-Me)]V[Bip]Y[Orn][dL][Dab][Cha]V[Orn]C[Dab]S[12Ado]-OH; thioether N-14) | 16.7 |
| Cc1cccc(C[C@@H]2NC(=O)[C@H](CC(=O)O)NC(=O)[C@H](Cc3ccc(OCC(=O)O)cc3)NC(=O)[C@H](CN)NC(=O)CSC[C@@H](C(=O)N[C@@H](CCCN)C(=O)N[C@@H](CO)C(=O)NCCCCCCCCCCCC(=O)O)NC(=O)[C@H](CCCN)NC(=O)[C@H](C(C)C)NC(=O)[C@H](CC3CCCCC3)NC(=O)[C@H](CCN)NC(=O)[C@@H](CC(C)C)NC(=O)[C@H](CCCN)NC(=O)[C@H](Cc3ccc(O)cc3)NC(=O)[C@H](Cc3ccc(-c4ccccc4)cc3)NC(=O)[C@H](C(C)C)NC2=O)c1 [Compound 3589] ({CH2CO}-[Dap]Y(Carboxymethyl)D[Phe(3-Me)]V[Bip]Y[Orn][dL][Dab][Cha]V[Orn]C[Orn]S[12Ado]-OH; thioether N-14) | 27.8 |
| CC(=O)NCCCC[C@@H]1NC(=O)[C@H](Cc2ccc(-c3ccccc3)cc2)NC(=O)[C@H](C(C)C)NC(=O)[C@H](Cc2cccc(C)c2)NC(=O)[C@H](CC(=O)O)NC(=O)[C@H](Cc2ccc(OCC(=O)O)cc2)NC(=O)[C@H](CN)NC(=O)CSC[C@@H](C(=O)N[C@@H](CCN)C(=O)N[C@@H](CO)C(=O)NCCCCCCCCCCCC(=O)O)NC(=O)[C@H](CCCN)NC(=O)[C@H](C(C)C)NC(=O)[C@H](CC2CCCCC2)NC(=O)[C@H](CCN)NC(=O)[C@@H](CC(C)C)NC(=O)[C@H](CCCN)NC1=O [Compound 3590] ({CH2CO}-[Dap]Y(Carboxymethyl)D[Phe(3-Me)]V[Bip]K(Ac)[Orn][dL][Dab][Cha]V[Orn]C[Dab]S[12Ado]-OH; thioether N-14) | 6.5 |
| Cc1cccc(C[C@@H]2NC(=O)[C@H](CC(=O)O)NC(=O)[C@H](Cc3ccc(OCC(=O)O)cc3)NC(=O)[C@H](CCCCNC(=N)N)NC(=O)CSC[C@@H](C(=O)N[C@@H](CCCN)C(=O)N[C@@H](CO)C(=O)NCCCCCCCCCCCC(=O)O)NC(=O)[C@H](CO)NC(=O)[C@H](C(C)O)NC(=O)[C@H](CC3CCCCC3)NC(=O)[C@H](CCN)NC(=O)[C@@H](CC(C)C)NC(=O)[C@H](CCCN)NC(=O)[C@H](CCCNC(N)=O)NC(=O)[C@H](Cc3ccc(-c4ccccc4)cc3)NC(=O)[C@H](C(C)C)NC2=O)c1 (stereo partly drawn) [Compound 3591] ({CH2CO}-[hArg]Y(Carboxymethyl)D[Phe(3-Me)]V[Bip][Cit][Orn][dL][Dab][Cha][Thr(3ξ)]SC[Orn]S[12Ado]-OH; thioether N-14) | 23.9 |
| CNC[C@@H]1NC(=O)CSC[C@@H](C(=O)N[C@@H](CCN)C(=O)NCCCCCCCCCCCC(=O)O)NC(=O)[C@H](CCCN)NC(=O)[C@H](C(C)C)NC(=O)[C@H](CC2CCCCC2)NC(=O)[C@H](CCN)NC(=O)[C@@H](CC(C)C)NC(=O)[C@H](CCCN)NC(=O)[C@H](Cc2ccc(O)cc2)NC(=O)[C@H](Cc2ccc(-c3ccccc3)cc2)NC(=O)[C@H](C(C)C)NC(=O)[C@H](Cc2cccc(C)c2)NC(=O)[C@H](CC(=O)O)NC(=O)[C@H](Cc2ccc(OCC(=O)O)cc2)NC1=O [Compound 3592] ({CH2CO}-[Dap(Me)]Y(Carboxymethyl)D[Phe(3-Me)]V[Bip]Y[Orn][dL][Dab][Cha]V[Orn]C[Dab][12Ado]-OH; thioether N-14) | 8.6 |
| Cc1cccc(C[C@@H]2NC(=O)[C@H](CC(=O)O)NC(=O)[C@H](Cc3ccc(OCC(=O)O)cc3)NC(=O)[C@H](CN)NC(=O)CSC[C@@H](C(=O)N[C@@H](CCN)C(=O)NCCCCCCCCCCC(=O)O)NC(=O)[C@H](C(C)O)NC(=O)[C@H](C(C)C)NC(=O)[C@H](CC3CCCCC3)NC(=O)[C@H](CCN)NC(=O)[C@@H](CC(C)C)NC(=O)[C@H](CCCN)NC(=O)[C@H](CCCNC(N)=O)NC(=O)[C@H](Cc3ccc(-c4ccccc4)cc3)NC(=O)[C@H](CCCNC(N)=O)NC2=O)c1 (stereo partly drawn) [Compound 3593] ({CH2CO}-[Dap]Y(Carboxymethyl)D[Phe(3-Me)][Cit][Bip][Cit][Orn][dL][Dab][Cha]V[Thr(3ξ)]C[Dab][Aun]-OH; thioether N-14) | 363 |
| CNC[C@@H]1NC(=O)CSC[C@@H](C(=O)N[C@@H](CCN)C(=O)NCCCCCCCCCCC(=O)O)NC(=O)[C@H](C(C)O)NC(=O)[C@H](C(C)C)NC(=O)[C@H](CC2CCCCC2)NC(=O)[C@H](CCN)NC(=O)[C@@H](CC(C)C)NC(=O)[C@H](CCCN)NC(=O)[C@H](CCCCNC(C)=O)NC(=O)[C@H](Cc2ccc(-c3ccccc3)cc2)NC(=O)[C@H](CCCCNC(C)=O)NC(=O)[C@H](Cc2cccc(C)c2)NC(=O)[C@H](CC(=O)O)NC(=O)[C@H](Cc2ccc(OCC(=O)O)cc2)NC1=O (stereo partly drawn) [Compound 3594] ({CH2CO}-[Dap(Me)]Y(Carboxymethyl)D[Phe(3-Me)]K(Ac)[Bip]K(Ac)[Orn][dL][Dab][Cha]V[Thr(3ξ)]C[Dab][Aun]-OH; thioether N-14) | 16.2 |
| Cc1cccc(C[C@@H]2NC(=O)[C@H](CC(=O)O)NC(=O)[C@H](Cc3ccc(OCC(=O)O)cc3)NC(=O)[C@H](CN)NC(=O)CSC[C@@H](C(=O)N[C@@H](CCN)C(=O)NCCCCCCCCCCC(=O)O)NC(=O)[C@H]([C@H](C)O)NC(=O)[C@H](C(C)O)NC(=O)[C@H](CC3CCCCC3)NC(=O)[C@H](CCN)NC(=O)[C@@H](CC(C)C)NC(=O)[C@H](CCCN)NC(=O)[C@H](Cc3ccc(O)cc3)NC(=O)[C@H](Cc3ccc(-c4ccccc4)cc3)NC(=O)[C@H](Cc3ccc(OCC(=O)O)cc3)NC2=O)c1 (stereo partly drawn) [Compound 3595] ({CH2CO}-[Dap]Y(Carboxymethyl)D[Phe(3-Me)]Y(Carboxymethyl)[Bip]Y[Orn][dL][Dab][Cha][Thr(3ξ)][aThr]C[Dab][Aun]-OH; thioether N-14) | 151 |
